Earlier results as cited in US20050065219A1, “Treatment of demyelinating conditions” (priority 2003, published 2005).

Columns and labels:
[1] = test system: nicotinic acetylcholine receptors; details: Masou et al. 1986
[2] = rats (Keilhoff et al. 1992)
NMDA receptor channel = NMDA receptor channel (Homo sapiens, UniProt Q05586); details: Bormann 1989
[3] = test system: 5-hydroxytryptamine 5-HT3 receptors; details: Reiser et al. 1988
[4] = target: PCP and MK-801 binding sites of the NMDA receptor (Homo sapiens, UniProt Q05586); details: postmortem human frontal cortex, at therapeutic concentrations (Kornhuber et al. 1989)
[5] = target: brain membranes ([3H]dizocilpine site) (Homo sapiens, UniProt Q05586); details: Chen et al. 1992
[6] = test system: cortical and retinal neuron cultures; details: cortical and retinal neuron cultures (Deyer et al. 1990)
[7] = clinical use for many years (Kornhuber et al. 1994)

- block of nicotinic acetylcholine receptors [1]: blocks
- antagonism of the NMDA receptor channel (NMDA receptor channel): micromolar antagonist
- block of 5-HT3 receptors [3]: blocks
- binding to PCP and MK-801 binding sites of the NMDA receptor [4]: binds
- [3H]dizocilpine binding to brain membranes [5]: inhibits
SMILES: CC12CC3CC(C)(C1)CC(N)(C3)C2 [memantine, 1-amino-3,5-dimethyladamantane]
- quinolic acid-induced hippocampal damage [2]: prevents
- protection from toxicity of glutamate, NMDA and HIV-1 coat protein gp120 [6]: protects
- tolerability in clinical use [7]: well tolerated
